Results reported in ChEMBL document CHEMBL4145553, “Design, synthesis, and biological evaluation of novel amide and hydrazide based thioether analogs targeting Histone deacteylase (HDAC) enzymes” (Eur J Med Chem, 2018).

Experiments:
NCI-H23 = test: Growth inhibition of human NCI-H23 cells at 10 uM incubated for 48 hrs by sulforhodamine B assay relative to control; format: functional; settings: NCI-H23, 48 h, values are per cent of control
NCI-H460 = test: Growth inhibition of human NCI-H460 cells at 10 uM incubated for 48 hrs by sulforhodamine B assay relative to control; format: functional; settings: NCI-H460, 48 h, values are per cent of control
SN12C = test: Growth inhibition of human SN12C cells at 10 uM incubated for 48 hrs by sulforhodamine B assay relative to control; format: functional; settings: values are per cent of control
RXF 393 = test: Growth inhibition of human RXF393 cells at 10 uM incubated for 48 hrs by sulforhodamine B assay relative to control; format: functional; settings: RXF 393, 48 h, values are per cent of control
CAKI-1 = test: Growth inhibition of human Caki1 cells at 10 uM incubated for 48 hrs by sulforhodamine B assay relative to control; format: functional; settings: CAKI-1, 48 h, values are per cent of control
A498 = test: Growth inhibition of human A498 cells at 10 uM incubated for 48 hrs by sulforhodamine B assay relative to control; format: functional; settings: A498, 48 h, values are per cent of control
786-0 = test: Growth inhibition of human 786-0 cells at 10 uM incubated for 48 hrs by sulforhodamine B assay relative to control; format: functional; settings: 786-0, 48 h, values are per cent of control
NCI/ADR-RES = test: Growth inhibition of human NCI/ADR-RES cells at 10 uM incubated for 48 hrs by sulforhodamine B assay relative to control; format: functional; settings: values are per cent of control
UO-31 = test: Growth inhibition of human UO31 cells at 10 uM incubated for 48 hrs by sulforhodamine B assay relative to control; format: functional; settings: UO-31, 48 h, values are per cent of control
PC-3 = test: Growth inhibition of human PC3 cells at 10 uM incubated for 48 hrs by sulforhodamine B assay relative to control; format: functional; settings: PC-3, 48 h, values are per cent of control
Hs-578T = test: Growth inhibition of human Hs 578T cells at 10 uM incubated for 48 hrs by sulforhodamine B assay relative to control; format: functional; settings: values are per cent of control
BT-549 = test: Growth inhibition of human BT549 cells at 10 uM incubated for 48 hrs by sulforhodamine B assay relative to control; format: functional; settings: BT-549, 48 h, values are per cent of control
MDA-MB-468 = test: Growth inhibition of human MDA-MB-468 cells at 10 uM incubated for 48 hrs by sulforhodamine B assay relative to control; format: functional; settings: MDA-MB-468, 48 h, values are per cent of control
SR = test: Growth of human SR cells at 10 uM incubated for 48 hrs by sulforhodamine B assay relative to control
KM12 = test: Growth of human KM12 cells at 10 uM incubated for 48 hrs by sulforhodamine B assay relative to control; settings: KM12, 48 h
EKVX = test: Growth of human EKVX cells at 10 uM incubated for 48 hrs by sulforhodamine B assay relative to control
SNB-75 = test: Growth of human SNB75 cells at 10 uM incubated for 48 hrs by sulforhodamine B assay relative to control; settings: SNB-75, 48 h
SNB-19 = test: Growth of human SNB19 cells at 10 uM incubated for 48 hrs by sulforhodamine B assay relative to control; settings: SNB-19, 48 h
SF-295 = test: Growth of human SF295 cells at 10 uM incubated for 48 hrs by sulforhodamine B assay relative to control; settings: SF-295, 48 h
SW-620 = test: Growth of human SW620 cells at 10 uM incubated for 48 hrs by sulforhodamine B assay relative to control; settings: SW-620, 48 h
HT-29 = test: Growth of human HT-29 cells at 10 uM incubated for 48 hrs by sulforhodamine B assay relative to control; settings: HT-29, 48 h
HCT-15 = test: Growth of human HCT15 cells at 10 uM incubated for 48 hrs by sulforhodamine B assay relative to control; settings: HCT-15, 48 h
MOLT-4 = test: Growth of human MOLT4 cells at 10 uM incubated for 48 hrs by sulforhodamine B assay relative to control; settings: MOLT-4, 48 h
OVCAR-8 = test: Growth of human OVCAR8 cells at 10 uM incubated for 48 hrs by sulforhodamine B assay relative to control; settings: OVCAR-8, 48 h
OVCAR-3 = test: Growth of human OVCAR3 cells at 10 uM incubated for 48 hrs by sulforhodamine B assay relative to control; settings: OVCAR-3, 48 h
LOX IMVI = test: Growth of human LOXIMVI cells at 10 uM incubated for 48 hrs by sulforhodamine B assay relative to control
HCC 2998 = test: Growth of human HCC2998 cells at 10 uM incubated for 48 hrs by sulforhodamine B assay relative to control; settings: HCC 2998, 48 h
COLO 205 = test: Growth of human COLO205 cells at 10 uM incubated for 48 hrs by sulforhodamine B assay relative to control; settings: COLO 205, 48 h
SK-MEL-2 = test: Growth of human SK-MEL-2 cells at 10 uM incubated for 48 hrs by sulforhodamine B assay relative to control; settings: SK-MEL-2, 48 h
NCI-H522 = test: Growth of human NCI-H522 cells at 10 uM incubated for 48 hrs by sulforhodamine B assay relative to control; settings: NCI-H522, 48 h
RPMI-8226 = test: Growth of human RPMI8226 cells at 10 uM incubated for 48 hrs by sulforhodamine B assay relative to control; settings: RPMI-8226, 48 h
SK-MEL-28 = test: Growth of human SK-MEL-28 cells at 10 uM incubated for 48 hrs by sulforhodamine B assay relative to control; settings: SK-MEL-28, 48 h
MDA-MB-435 = test: Growth of human MDA-MB-435 cells at 10 uM incubated for 48 hrs by sulforhodamine B assay relative to control; settings: MDA-MB-435, 48 h

With `CCS/C(Nc1ccccc1)=C(\C#N)C(=O)N/N=C\c1ccco1` the growth, % of control at 10 µM (NCI-H23) was 96.5%, the growth, % of control at 10 µM (NCI-H460) was 110% and the growth, % of control at 10 µM (SN12C) was 97.7%. The growth, % of control at 10 µM (RXF 393) was 104%, the growth, % of control at 10 µM (CAKI-1) was 95.9% and the growth, % of control at 10 µM (A498) was 77.3%. For the same compound, the growth, % of control at 10 µM (786-0) was 100%, the growth, % of control at 10 µM (NCI/ADR-RES) was 101% and the growth, % of control at 10 µM (UO-31) was 86.8%. For the same compound, the growth, % of control at 10 µM (PC-3) was 99.4%, the growth, % of control at 10 µM (Hs-578T) was 101% and the growth, % of control at 10 µM (BT-549) was 109%. It also gave a growth, % of control at 10 µM (MDA-MB-468) of 91.4%, a growth, % of control at 10 µM (SR) of 85.1% and a growth, % of control at 10 µM (KM12) of 104%. The growth, % of control at 10 µM (EKVX) was 101%, the growth, % of control at 10 µM (SNB-75) was 89.1% and the growth, % of control at 10 µM (SNB-19) was 101%. It also gave a growth, % of control at 10 µM (SF-295) of 101%, a growth, % of control at 10 µM (SW-620) of 103% and a growth, % of control at 10 µM (HT-29) of 94.7%. The growth, % of control at 10 µM (HCT-15) was 106%, the growth, % of control at 10 µM (MOLT-4) was 76.3% and the growth, % of control at 10 µM (OVCAR-8) was 92.1%. For the same compound, the growth, % of control at 10 µM (OVCAR-3) was 104%, the growth, % of control at 10 µM (LOX IMVI) was 109% and the growth, % of control at 10 µM (HCC 2998) was 107%. For the same compound, the growth, % of control at 10 µM (COLO 205) was 103%, the growth, % of control at 10 µM (SK-MEL-2) was 94.3% and the growth, % of control at 10 µM (NCI-H522) was 75.7%. For the same compound, the growth, % of control at 10 µM (RPMI-8226) was 103%, the growth, % of control at 10 µM (SK-MEL-28) was 109% and the growth, % of control at 10 µM (MDA-MB-435) was 105%.

In the case of `CCS/C(Nc1ccccc1)=C(\C#N)C(=O)Nc1ccccc1`, the growth, % of control at 10 µM (NCI-H23) is reported as 94.3%, the growth, % of control at 10 µM (NCI-H460) is reported as 99.5% and the growth, % of control at 10 µM (SN12C) is reported as 94%. For the same compound, the growth, % of control at 10 µM (RXF 393) was 101%, the growth, % of control at 10 µM (CAKI-1) was 87.5% and the growth, % of control at 10 µM (A498) was 76.2%. For the same compound, the growth, % of control at 10 µM (786-0) was 88.5%, the growth, % of control at 10 µM (NCI/ADR-RES) was 91.1% and the growth, % of control at 10 µM (UO-31) was 76%. The growth, % of control at 10 µM (PC-3) was 92.4%, the growth, % of control at 10 µM (Hs-578T) was 96.9% and the growth, % of control at 10 µM (BT-549) was 103%. The growth, % of control at 10 µM (MDA-MB-468) was 90.7%, the growth, % of control at 10 µM (SR) was 70.3% and the growth, % of control at 10 µM (KM12) was 90%. The growth, % of control at 10 µM (EKVX) was 100%, the growth, % of control at 10 µM (SNB-75) was 102% and the growth, % of control at 10 µM (SNB-19) was 91.2%. It also gave a growth, % of control at 10 µM (SF-295) of 91.3%, a growth, % of control at 10 µM (SW-620) of 103% and a growth, % of control at 10 µM (HT-29) of 88.2%. For the same compound, the growth, % of control at 10 µM (HCT-15) was 93.7%, the growth, % of control at 10 µM (MOLT-4) was 69.2% and the growth, % of control at 10 µM (OVCAR-8) was 94.2%. It also gave a growth, % of control at 10 µM (OVCAR-3) of 88.9%, a growth, % of control at 10 µM (LOX IMVI) of 97.9% and a growth, % of control at 10 µM (HCC 2998) of 96.1%. The growth, % of control at 10 µM (COLO 205) was 113%, the growth, % of control at 10 µM (SK-MEL-2) was 87.6% and the growth, % of control at 10 µM (NCI-H522) was 65.7%. The growth, % of control at 10 µM (RPMI-8226) was 79.2%, the growth, % of control at 10 µM (SK-MEL-28) was 112% and the growth, % of control at 10 µM (MDA-MB-435) was 110%.
